Test results published in patent US4343805A, “Heterocyclic compounds” (John Wyeth & Brother Limited, priority 1978, dated 1982).

Tests used:
[1] = tested on: Anti-secretory (gastric secretion volume); assay: Anti-secretory test (Shay et al); format: in vivo
Experimental: (§1) Anti-ulcer activity was determined by the stress-induced erosion test of Senay & Levine, Proc. Soc. Exp. Biol. Med., 124, 1221-3(1967) and anti-secretory activity by the test of H. Shay, D. Sun and H. Greenstein, Gastroentarology, 1954, 26, 903-13 as exemplified by Beattie et al J. Med. Chem., 20, 714 (1977). […] However, some compounds show activity in tests for anti-hypertensive activity.

[2] = tested on: Stress-induced erosion; assay: Stress-induced erosion test (Senay & Levine), anti-ulcer activity; format: in vivo
Experimental: as §1

[3] = tested on: male spontaneously hypertensive rats; assay: Anti-hypertensive activity, Procedure A (spontaneously hypertensive rats, systolic pressure); format: in vivo, rat
Experimental: (§2) Some compounds of the invention were tested for anti-hypertensive activity by the following procedures.
Systolic pressure of male spontaneously hypertensive rats is measured by an indirect technique using the Decker Caudal Plethylsmograph or other appropriate sensor. Groups usually consist of 4 rats. Drugs are usually administered orally. Pressures are usually read prior to drug administration and at 1.5, 4 and 24 hours thereafter. The schedule may be altered depending upon the behaviour of the drug.

[4] = tested on: Female rats rendered hypertensive (unilateral nephrectomy, deoxycorticosterone acetate); assay: Anti-hypertensive activity, Procedure B (deoxycorticosterone acetate hypertensive rats, systolic pressure); format: in vivo, rat; conditions: 50 mg/kg orally, DOCA hypertensive female rats
Experimental: as §2
Female rats are rendered hypertensive by unilateral nephrectomy and the s.c. implantation of a pellet containing 30 mg of deoxycorticosterone acetate. The drinking water is replaced by normal saline ad lib for the first four weeks following preparation. Blood pressures stabilise at a hypertensive level after 6 weeks. Systolic pressure is measured indirectly before dosing with a test compound using an E and M pneumatic pulse transducer and a Devices MX2 recorder. Groups of 4 rats are dosed orally with suspensions or solutions of the test compound in 0.5% hydroxypropyl-methyl-cellulose 0.9% saline vehicle. Blood pressures are recorded again at 2, 6 and 24 hours and the results, expressed as a percentage of the pre-dose values compared with those of a similar group of rats receiving vehicle alone.

Row | SMILES | Anti-secretory (Shay et al), % change in volume ([1]; Dose 30 mg/kg) [%] | inhibition in vivo at 100 mg/kg [2] [%] | other results
1 | C[n+]1ccccc1SCCN1CCCCC1 [Example 11, 1-Methyl-2-[(2-piperidinoethyl)thio]pyridinium chloride] | -35 | – | –
2 | C[n+]1ccccc1SCc1ccccn1 [Example 2, 1-Methyl-2(2-pyridyl)methylthio)pyridinium chloride] | -31 | 50 | –
3 | C[n+]1ccccc1SCc1ccncc1 [Example 9, 1-Methyl-2-([(4-pyridyl)methyl]thio)pyridinium chloride] | – | – | Anti-hypertensive activity (Procedure A) ([3]; 50 mg/kg orally): showed activity
4 | c1ccc(SCc2c[nH]cn2)nc1 [Example 8, 2-(4-Imidazolylmethylthio)pyridine] | – | 79 | inhibition in vivo at 30 mg/kg [2]: 70%
5 | Cc1[nH]cnc1CSc1nccn1C [Example 4, 1-Methyl-2(4-[5-methylimidazolyl]methylthio)imidazole] | -87 | 83 | Anti-hypertensive activity (Procedure B) [4]: active; inhibition in vivo at 30 mg/kg [2]: 58%; Anti-secretory (Shay et al), % change in volume ([1]; Dose 10 mg/kg): -33%
6 | Cc1[nH]cnc1CSc1cccc[n+]1C [Example 1, 1-Methyl-2(4-[5-methylimidazolyl]methylthio)pyridinium chloride] | -65 | 69 | Anti-hypertensive activity (Procedure B) [4]: inactive; Anti-secretory (Shay et al), % change in volume ([1]; Dose 10 mg/kg): -43%
7 | C[n+]1ccccc1SCc1cccnc1 [Example 5, 1-Methyl-2-(3-pyridylmethylthio)pyridinium chloride] | -55 | 58 | Anti-hypertensive activity (Procedure A) ([3]; 75 mg/kg orally): showed activity
8 | Cc1[nH]cnc1CSc1ccncc1 [Example 7, 4-(4-[5-Methylimidazolyl]methylthio)pyridine] | -60 | 87 | Anti-hypertensive activity (Procedure B) [4]: inactive
9 | Cc1[nH]cnc1CSc1ccccn1 [Example 6, 2-(4-[5-Methylimidazolyl]methylthio)pyridine] | – | – | inhibition in vivo at 3 mg/kg ([2]; Dose 3 mg/kg): 56%; inhibition in vivo at 10 mg/kg ([2]; Dose 10 mg/kg): 68%; Anti-hypertensive activity (Procedure A) ([3]; 75 mg/kg orally): inactive
10 | C[n+]1ccccc1SCc1c[nH]cn1 [Example 3, 1-Methyl-2(4-imidazolylmethylthio)pyridinium chloride] | -71 | 67 | Anti-hypertensive activity (Procedure A) ([3]; 75 mg/kg orally): showed activity
11 | C[n+]1ccccc1SCc1ccc2ccccc2n1 [Example 10, 1-Methyl-2([(2-quinolyl)methyl]thio)pyridinium chloride] | – | – | Anti-hypertensive activity (Procedure A) ([3]; 50 mg/kg orally): showed activity
